Source: patent US20160090556A1, “PRODUCTS COMPRISING MALODOR REDUCTION MATERIALS” (The Procter & Gamble Company, priority 2014, published 2016)
Read-outs that look alike come from different tables or passages of the source.

Assay: Liquid dish neat product liquid-air partition coefficient
Type: physicochemical
[1] = class code letter within Comment Code

In the case of `CCCCCCCCCCCC(=O)OCCC(C)C` [Material 238], the “Log of liquid dish neat product liquid-air partition coefficient (Comment Code K/L)” value (from here on “Log … (Comment Code K/L)”) [1] is reported as “K (Log of liquid dish neat product liquid-air partition coefficient greater than or equal to −7)”.

For `CCCCCCOC(=O)c1ccco1` [Material 275], the “Comment Code: Log of liquid dish neat product liquid-air partition coefficient” value (shortened to “Comment Code: Log”) (code letters K, L) was “K (Log of liquid dish neat product liquid-air partition coefficient greater than or equal to −7)”.

For `CC(=O)C(C)=CC1C(C)=CCCC1(C)C` (centres unmarked) [Material 703], the “Comment Code: Log” value (code letters K, L) was “K (Log of liquid dish neat product liquid-air partition coefficient greater than or equal to −7)”.

In the case of `CCCCCCCCCCCC(=O)OC(C)C` [Material 197], the “Log … (Comment Code K/L)” value [1] is reported as “K (Log of liquid dish neat product liquid-air partition coefficient greater than or equal to −7)”.

With `CCC=CCCC=CCO` [Material 865] the “Log … (Comment Code K/L)” value was “K (Log of liquid dish neat product liquid-air partition coefficient greater than or equal to −7)”.

In the case of `CC1=CC(=O)CC(C)C12CCC(=C(C)C)C2` (centres unmarked) [Material 610], the “Log … (Comment Code K/L)” value is reported as “K (Log of liquid dish neat product liquid-air partition coefficient greater than or equal to −7)”.

With `CCCCCCCCCCC=O` [Material 1102] the “Log … (Comment Code K/L)” value was “K (Log of liquid dish neat product liquid-air partition coefficient greater than or equal to −7)”.

With `CCOC(=O)C1C2C=CC(C2)C1C(C)C` (centres unmarked) [Material 280] the “Log … (Comment Code K/L)” value [1] was “K (Log of liquid dish neat product liquid-air partition coefficient greater than or equal to −7)”.

In the case of `Cc1ccc(CC(C)C=O)cc1` (centres unmarked) [Material 742], the “Log … (Comment Code K/L)” value is reported as “K (Log of liquid dish neat product liquid-air partition coefficient greater than or equal to −7)”.

For `CC(=O)OC(C)CCC=C(C)CCC=C(C)C` (racemic) [Material 881], the “Log … (Comment Code K/L)” value was “K (Log of liquid dish neat product liquid-air partition coefficient greater than or equal to −7)”.

With `C=C(C)C1CC=C(C=O)CC1` (centres unmarked) [Material 946] the “Log … (Comment Code K/L)” value was “K (Log of liquid dish neat product liquid-air partition coefficient greater than or equal to −7)”.

For `CC(=O)OCC1CC=C(CCC=C(C)C)CC1` (centres unmarked) [Material 74], the “Log … (Comment Code K/L)” value [1] was “K (Log of liquid dish neat product liquid-air partition coefficient greater than or equal to −7)”.

With `c1ccc(CCCc2ccccn2)cc1` [Material 497] the “Log … (Comment Code K/L)” value [1] was “K (Log of liquid dish neat product liquid-air partition coefficient greater than or equal to −7)”.

In the case of `CCc1ccccc1CC(C)(C)C=O` [Material 354], the “Comment Code: Log” value (code letters K, L) is reported as “K (Log of liquid dish neat product liquid-air partition coefficient greater than or equal to −7)”.

With `CCCCCCCC(=O)OCCCCCC` [Material 263] the “Log … (Comment Code K/L)” value [1] was “K (Log of liquid dish neat product liquid-air partition coefficient greater than or equal to −7)”.

For `C=CC(=C)CCC=C(C)CCC=C(C)C=O` [Material 613], the “Log … (Comment Code K/L)” value was “K (Log of liquid dish neat product liquid-air partition coefficient greater than or equal to −7)”.

For `CC(C)(C)c1ccc(CC=O)cc1` [Material 994], the “Comment Code: Log” value (code letters K, L) was “K (Log of liquid dish neat product liquid-air partition coefficient greater than or equal to −7)”.

In the case of `CCOC(=O)C1CCC(C(=O)OCC)CC1` (centres unmarked) [Material 347], the “Log … (Comment Code K/L)” value [1] is reported as “K (Log of liquid dish neat product liquid-air partition coefficient greater than or equal to −7)”.

For `CC1=CC(C)C2C(CCC(C)(C)C2O)C1` (centres unmarked) [Material 39], the “Log … (Comment Code K/L)” value [1] was “K (Log of liquid dish neat product liquid-air partition coefficient greater than or equal to −7)” and the “Comment Code: Log” value (code letters K, L) was “K (Log of liquid dish neat product liquid-air partition coefficient greater than or equal to −7)”.

For `CCCOC(C)OCCc1ccccc1` (centres unmarked) [Material 766], the “Log … (Comment Code K/L)” value was “K (Log of liquid dish neat product liquid-air partition coefficient greater than or equal to −7)”.

In the case of `CC(C)Cc1ccc2ccccc2n1` [Material 849], the “Log … (Comment Code K/L)” value is reported as “K (Log of liquid dish neat product liquid-air partition coefficient greater than or equal to −7)”.

For `CC(=O)OCCC1=CCC2CC1C2(C)C` (centres unmarked) [Material 47], the “Log … (Comment Code K/L)” value [1] was “K (Log of liquid dish neat product liquid-air partition coefficient greater than or equal to −7)”.

In the case of `CC1CC=CCCCCCCCC(=O)OCC1` (centres unmarked) [Material 1099], the “Log … (Comment Code K/L)” value is reported as “K (Log of liquid dish neat product liquid-air partition coefficient greater than or equal to −7)”.

With `CCCCCCC#CC(OC)OC` [Material 3] the “Log … (Comment Code K/L)” value [1] was “K (Log of liquid dish neat product liquid-air partition coefficient greater than or equal to −7)”.

In the case of `O=C/C=C/c1ccccc1` [Material 554], the “Comment Code: Log” value (code letters K, L) is reported as “K (Log of liquid dish neat product liquid-air partition coefficient greater than or equal to −7)”.

For `CC(C)c1ccc(CO)cc1` [Material 491], the “Log … (Comment Code K/L)” value [1] was “K (Log of liquid dish neat product liquid-air partition coefficient greater than or equal to −7)”.

With `CC1=CCC(C(C)CC2CCCC2=O)CC1` (centres unmarked) [Material 69] the “Log … (Comment Code K/L)” value [1] was “K (Log of liquid dish neat product liquid-air partition coefficient greater than or equal to −7)”.

In the case of `CCCCCCC1C(=O)CCC1C(=O)OC` (centres unmarked) [Material 450], the “Log … (Comment Code K/L)” value [1] is reported as “K (Log of liquid dish neat product liquid-air partition coefficient greater than or equal to −7)”.

In the case of `CC1(C)CCCC2=C1CC(C=O)CC2` (centres unmarked) [Material 486], the “Log … (Comment Code K/L)” value [1] is reported as “K (Log of liquid dish neat product liquid-air partition coefficient greater than or equal to −7)”.

With `CC1CCCCCCCCCCCCC(=O)C1` (centres unmarked) [Material 206] the “Log … (Comment Code K/L)” value [1] was “K (Log of liquid dish neat product liquid-air partition coefficient greater than or equal to −7)” and the “Comment Code: Log” value (code letters K, L) was “K (Log of liquid dish neat product liquid-air partition coefficient greater than or equal to −7)”.

In the case of `CC1=CC[C@@H]2[C@@]3(C)CCCC(C)(C)[C@@H]3CC[C@@]2(C)O1` [Material 1029], the “Log … (Comment Code K/L)” value is reported as “K (Log of liquid dish neat product liquid-air partition coefficient greater than or equal to −7)” and the “Comment Code: Log” value (code letters K, L) is reported as “K (Log of liquid dish neat product liquid-air partition coefficient greater than or equal to −7)”.

For `CC1(C)C2=C(CO)CCC(C)(C)C23CCC1C3` (centres unmarked) [Material 248], the “Comment Code: Log” value (code letters K, L) was “K (Log of liquid dish neat product liquid-air partition coefficient greater than or equal to −7)”.

With `C=Cc1ccc(O)cc1` [Material 789] the “Comment Code: Log” value (code letters K, L) was “K (Log of liquid dish neat product liquid-air partition coefficient greater than or equal to −7)”.

For `CC(=CCC1CC=C(C)C1(C)C)CO` (centres unmarked) [Material 1025], the “Log … (Comment Code K/L)” value was “K (Log of liquid dish neat product liquid-air partition coefficient greater than or equal to −7)”.

In the case of `OCC=Cc1ccccc1` [Material 555], the “Log … (Comment Code K/L)” value [1] is reported as “K (Log of liquid dish neat product liquid-air partition coefficient greater than or equal to −7)”.

For `CC(C)Cc1ccc(CC(C)C=O)cc1` (centres unmarked) [Material 1033], the “Log … (Comment Code K/L)” value was “K (Log of liquid dish neat product liquid-air partition coefficient greater than or equal to −7)”.

For `CCCCCCC(=O)OCc1ccco1` [Material 339], the “Log … (Comment Code K/L)” value [1] was “K (Log of liquid dish neat product liquid-air partition coefficient greater than or equal to −7)”.

With `CCCCCCCCC1CCC(=O)O1` (centres unmarked) [Material 330] the “Log … (Comment Code K/L)” value [1] was “K (Log of liquid dish neat product liquid-air partition coefficient greater than or equal to −7)”.

In the case of `C[C@@H]1CC[C@H]2C(C)(C)[C@H]3C[C@@]12CC[C@@]3(C)O` [Material 569], the “Log … (Comment Code K/L)” value is reported as “K (Log of liquid dish neat product liquid-air partition coefficient greater than or equal to −7)” and the “Comment Code: Log” value (code letters K, L) is reported as “K (Log of liquid dish neat product liquid-air partition coefficient greater than or equal to −7)”.

For `Cc1cccc(CCO)c1` [Material 928], the “Log … (Comment Code K/L)” value was “K (Log of liquid dish neat product liquid-air partition coefficient greater than or equal to −7)”.

For `C=C(C)C1CCC2(C)CCCC(=C)C2C1` (centres unmarked) [Material 615], the “Log … (Comment Code K/L)” value was “K (Log of liquid dish neat product liquid-air partition coefficient greater than or equal to −7)”.

In the case of `CC1OCC(c2ccccc2)O1` (centres unmarked) [Material 190], the “Log … (Comment Code K/L)” value [1] is reported as “K (Log of liquid dish neat product liquid-air partition coefficient greater than or equal to −7)”.

For `COC1CC2CC1C1CC(C=O)CC21` (centres unmarked) [Material 1027], the “Log … (Comment Code K/L)” value was “K (Log of liquid dish neat product liquid-air partition coefficient greater than or equal to −7)” and the “Comment Code: Log” value (code letters K, L) was “K (Log of liquid dish neat product liquid-air partition coefficient greater than or equal to −7)”.

For `COC(OC)C(C)c1ccccc1` (centres unmarked) [Material 256], the “Log … (Comment Code K/L)” value [1] was “K (Log of liquid dish neat product liquid-air partition coefficient greater than or equal to −7)”.

For `C=CCCCCCCCCC=O` [Material 871], the “Log … (Comment Code K/L)” value was “K (Log of liquid dish neat product liquid-air partition coefficient greater than or equal to −7)”.

With `C=CC(C)(O)CCC=C(C)CCC=C(C)C` (centres unmarked) [Material 63] the “Log … (Comment Code K/L)” value [1] was “K (Log of liquid dish neat product liquid-air partition coefficient greater than or equal to −7)”.

In the case of `COCc1ccc(O)c(OC)c1` [Material 1113], the “Comment Code: Log” value (codes K/L of the Comment Code, Table 1) is reported as “K (Log of liquid dish neat product liquid-air partition coefficient greater than or equal to −7)”.

For `CC1=CCC(C=CC(C)C(C)O)C1(C)C` (centres unmarked) [Material 416], the “Log … (Comment Code K/L)” value [1] was “K (Log of liquid dish neat product liquid-air partition coefficient greater than or equal to −7)”.
